Test results published in patent publication US12741974B2, “Compounds constituting C20-modified salinomycin derivatives, a method for obtaining the same, a composition containing the same, a use of said compounds and a method for obtaining an intermediate product” (FILECLO SP. Z O.O., priority 2020, dated 2021).
pIC50: −log10 of the molar value.

Assays:
Format in all cases: cell-based
B16-F0 (murine melanoma) = test: In vitro cytotoxicity test, SRB assay, 72 h incubation with compound; details: for pIC50: Mus musculus, B16F0, B16-F0 murine melanoma, SRB, 72 h; for SI B16-F0: selectivity coefficient, BALB/3T3 versus B16-F0
Procedure: (§1) In vitro cytotoxicity tests were performed according to the procedure described below. […] The solvent for further dilutions was a culture medium.
(§2) The experiments were repeated at least 3 times.

Hs294T (human melanoma) = test: as above; details: for pIC50: Hs 294T, Hs294T human melanoma, SRB, 72 h; for SI Hs294T: selectivity coefficient, BALB/3T3 versus Hs294T
Procedure: as §1, §2

[1] = system: LoVo (drug-sensitive human colon cancer); test: as above; details: for pIC50: LoVo drug-sensitive human colon cancer, SRB, 72 h; for SI LoVo: selectivity coefficient, BALB/3T3 versus LoVo
Procedure: as §1, §2

[2] = system: LoVo/DX (drug-resistant human colon cancer); test: as above; details: for pIC50: LoVo/DX drug-resistant human colon cancer, SRB, 72 h; for RI: drug resistance coefficient, LoVo/DX versus LoVo, 4320 min; for SI LoVo/DX: selectivity coefficient, BALB/3T3 versus LoVo/DX
Procedure: as §1, §2

[3] = system: MCF-7 (human breast cancer); test: as above; details: for pIC50: MCF7, MCF-7 human breast cancer, SRB, 72 h; for SI MCF-7: selectivity coefficient, BALB/3T3 versus MCF-7
Procedure: as §1, §2

[4] = system: MV-4-11 (human biphenotypic leukaemia); test: In vitro cytotoxicity test, MTT assay, 72 h incubation with compound; details: for pIC50: MV-4-11 human biphenotypic leukaemia, MTT, 72 h; for SI MV-4-11: selectivity coefficient, BALB/3T3 versus MV-4-11
Procedure: as §1, §2
After 4 hours of incubation at 37° C., 80 μL of lysis buffer was added to each well.

[5] = In vitro cytotoxicity test on normal cells, SRB assay, 72 h incubation with compound; details: mouse, balb/3t3 cells, normal murine fibroblasts, read-out: IC50 BALB/3T3
Procedure: (§3) Normal murine BALB/3T3 fibroblasts were also used in the tests for determining the selectivity coefficients of the compounds used in the assays.
as §1, §2

cancer cells = test: In vitro cytotoxicity tests, summary statements over the cancer cell lines; details: in words; for anti-proliferative effect compared to the parent compound: versus salinomycin
Procedure: The following cancer cell lines were used in in vitro studies: • B16-F0 (murine melanoma), • Hs294T (human melanoma), • LoVo (drug-sensitive human colon cancer), • LoVo/DX (drug-resistant human colon cancer), • MCF-7 (human breast cancer), • MV-4-11 (human biphenotypic leukaemia).
as §3
In vitro cytotoxicity tests were performed according to the procedure described below. Stock solutions of the test compounds at 10 mg/mLh were prepared for each experiment ex tempore by dissolving 1 mg of the preparation in 100 μL of dimethylsulfoxide (DMSO). The solvent for further dilutions was a culture medium. Compounds were tested at concentration ranges of 100 to 0.00001 μg/mLh (for the B16-F0 and Hs294T cell lines) and 100 to 0.1 μg/mLh (for the LoVo, LoVo/DX, MCF-7, MV-4-11 and BALB/3T3 cell lines).
An MTT tetrazolium salt reduction assay [as per: Wietrzyk et al., Anti-cancer drugs, 2007, 18, 447-457] was performed for MV-4-11 cells (human biphenotypic leukaemia) to evaluate the metabolic activity of cancer cells. On the other hand, to determine the anti-proliferative activity of all tested compounds against B16-F0 (murine melanoma), Hs294T (human melanoma), LoVo (drug-sensitive human colon cancer), LoVo/DX (drug-resistant human colon cancer), MCF-7 (human breast cancer) and BALB/3T3 (normal mouse fibroblasts) cell lines, the SRB colorimetric assay was used [as per: Skehan et al., Journal of the National Cancer Institute, 1990, 82, 1107-1112] measuring the inhibition of target cell proliferation based on the amount of cellular protein measured. In each experiment, samples containing specific concentrations of the test compound were applied to 96-well plates in triplicate. The experiments were repeated at least 3 times.
When calculating the mean absorbance value for a set of wells (untreated cells, cells treated with a specific compound at a specific concentration, control of medium alone), outliers were rejected using a 10% coefficient of variation CV.

[6] = system: BALB/3T3 (normal murine fibroblasts); test: In vitro cytotoxicity test on normal cells, SRB assay, 72 h incubation with compound; details: read-out: IC50 BALB/3T3
Procedure: as §3, §1, §2

| SMILES | pIC50 (B16-F0 (murine melanoma)) | SI B16-F0 (B16-F0 (murine melanoma)) | pIC50 (Hs294T (human melanoma)) | SI Hs294T (Hs294T (human melanoma)) | pIC50 [1] | SI LoVo [1] | pIC50 [2] | RI [2] | SI LoVo/DX [2] | pIC50 [3] | SI MCF-7 [3] | pIC50 ([4]; MV4-11) | SI MV-4-11 [4] | CC50 at 72 h [5] [nM] | anti-proliferative effect compared to the parent compound (cancer cells) | preferred effect against a type of cancer cells (cancer cells) | pIC50 [4] | CC50 [6] [nM] |
| --- | --- | --- | --- | --- | --- | --- | --- | --- | --- | --- | --- | --- | --- | --- | --- | --- | --- | --- |
| CC[C@@H](C(=O)[C@@H](C)[C@@H](O)[C@H](C)[C@@H]1O[C@@H]([C@@H](CC)C(=O)O)CC[C@@H]1C)[C@H]1O[C@]2(C=C[C@@H](NC(=O)C(C)C)[C@]3(CC[C@@](C)([C@H]4CC[C@](O)(CC)[C@H](C)O4)O3)O2)[C@H](C)C[C@@H]1C [(10), C20-dehydroxy-C20-aminosalinomycin N-isobutyramide] | 7.15 | 50.3 | 7.70 | 176.0 | 6.17 | 5.3 | 6.72 | 0.3 | 18.5 | 6.15 | 5.0 | 7.15 | 50.3 | 3520 | several times more potent |  |  |  |
| CC[C@@H](C(=O)[C@@H](C)[C@@H](O)[C@H](C)[C@@H]1O[C@@H]([C@@H](CC)C(=O)[O-])CC[C@@H]1C)[C@H]1O[C@]2(C=C[C@@H](NC(=O)NCCCCl)[C@]3(CC[C@@](C)([C@H]4CC[C@](O)(CC)[C@H](C)O4)O3)O2)[C@H](C)C[C@@H]1C.[Na+] [(25), 3-chloropropylurea of C20-dehydroxy-C20-aminosalinomycin] | 8.00 | 135.0 | 8.25 | 241.1 | 7.70 | 67.5 | 6.66 | 11.0 | 6.1 | 6.74 | 7.5 | 9.52 | 4500.0 | 1350 | tens of times more potent | preferred effect against biphenotypic leukaemia cells |  |  |
| CC[C@@H](C(=O)[C@@H](C)[C@@H](O)[C@H](C)[C@@H]1O[C@@H]([C@@H](CC)C(=O)O)CC[C@@H]1C)[C@H]1O[C@]2(C=C[C@@H](NC(=O)c3ccccc3)[C@]3(CC[C@@](C)([C@H]4CC[C@](O)(CC)[C@H](C)O4)O3)O2)[C@H](C)C[C@@H]1C [(15), C20-dehydroxy-C20-aminosalinomycin N-benzamide] | 7.70 | 81.5 | 7.70 | 81.5 | 6.55 | 5.1 | 7.30 | 0.2 | 32.6 | 6.55 | 5.8 | 7.22 | 27.2 | 1630 | several times more potent |  |  |  |
| C#CCOC(=O)N[C@@H]1C=C[C@]2(O[C@H]([C@@H](CC)C(=O)[C@@H](C)[C@@H](O)[C@H](C)[C@@H]3O[C@@H]([C@@H](CC)C(=O)O)CC[C@@H]3C)[C@@H](C)C[C@H]2C)O[C@@]12CC[C@@](C)([C@H]1CC[C@](O)(CC)[C@H](C)O1)O2 [(22), C20-dehydroxy-C20-aminosalinomycin N-propargylcarbamate] | 7.70 | 66.0 | 8.39 | 322.0 | 6.52 | 4.4 | 7.30 | 0.2 | 26.4 | 6.47 | 3.9 | 7.30 | 26.4 | 1320 | tens of times more potent |  |  |  |
| CC[C@@H](C(=O)[C@@H](C)[C@@H](O)[C@H](C)[C@@H]1O[C@@H]([C@@H](CC)C(=O)O)CC[C@@H]1C)[C@H]1O[C@]2(C=C[C@H](NC(=O)CCCCl)[C@]3(CC[C@@](C)([C@H]4CC[C@](O)(CC)[C@H](C)O4)O3)O2)[C@H](C)C[C@@H]1C [(12 epi), reference compound] |  |  |  |  |  |  |  |  |  |  |  |  | 2.9 |  |  |  | 5.60 | 7300 |
